Experiments:
sebum production = details: administration of isotretinoin, current treatment; cited from earlier work
sebaceous glands = test: Study of the properties of pactimibe: sebum production by the sebaceous glands
[1] = Study of the properties of pactimibe: toxicity
ACAT/SOAT enzyme = test: Measurement of ACAT/SOAT activity (NBD-cholesterol fluorescence assay in HepG2 cells); assay type: cell-based; details: NBD-cholesterol 1 μg/ml, incubation 6 h at 37° C., read-out: inhibition of cholesterol ester synthesis, IC50
From the text: Measurement of ACAT/SOAT Activity:
The objective of this test is to visualize the activity of the ACAT/SOAT enzyme on the synthesis of cholesterol esters.
The test is based on the following publication: “Identification of ACAT1- and ACAT2-specific inhibitors using a novel, cell based fluorescence assay: individual ACAT uniqueness”, J. Lipid Res., (2004) vol. 45, pages 378-386.
The principle of this test is based on the use of NBD-cholesterol, which is a cholesterol analogue of which the fluorescence is dependent on its environment. When said analogue is in a polar environment, it is weakly fluorescent, whereas in a non-polar environment, it is strongly fluorescent. Free NBD-cholesterol is localized in the cell membranes and is weakly fluorescent in this polar environment. When NBD-cholesterol is esterified by ACAT, the NBD-cholesterol ester is localized in non-polar lipid droplets and is therefore strongly fluorescent.
HepG2 cells are incubated in the presence of NBD-cholesterol (1 μg/ml) and of the test product in transparent-bottomed black 96-well plates at a rate of 30 000 cells per well. […] After the addition of 50 μl of lysis buffer (10 mM NaPO4, 1% Igepal), the plates are shaken for 5 min and read by fluorescence (excitation 490 nm, emission 540 nm) on the Fusion instrument (Perkin Elmer).

Row | IC50 (ACAT/SOAT enzyme) | SMILES | decrease of sebum production (sebum production) | side effects (sebum production) | sebum production by the sebaceous glands (sebaceous glands) | toxicity [1]
1 | – | CC1=C(/C=C/C(C)=C/C=C/C(C)=C\C(=O)O)C(C)(C)CCC1 [isotretinoin] | ~90% | considerable side effects | – | –
2 | 0.05 µM | CCCCCCCCN1CCc2c(C)c(CC(=O)O)c(C)c(NC(=O)C(C)(C)C)c21 [pactimibe, N-(1-octyl-5-carboxymethyl-4,6-dimethylindolin-7-yl)-2,2-dimethylpropanamide] | – | – | reduce sebum production | not toxic

From patent US20100179209A1, “Pactimibe medicaments for preventing/treating a disease due to sebaceous gland dysfunction in humans or animals” (GALDERMA RESEARCH & DEVELOPMENT, priority 2007, published 2010)
